Legend:
MCF-7 = system: MCF-7; design: LD50 β-Lap + CAT: unit not given beside the values
Procedure: (§1) Cells were cultured and treated as described above. […] Experiments were repeated at least three times, and data expressed as relative survival (treated/control×100%) means±SEM. […] The multi-target model was used to describe the shape of relative survival curves. In this model, a final slope (D0) resulting from multiple-event killing and quasithreshold (Dq) doses were used to represent the size or width of the shoulder of the curve. The extrapolation number (n) is also a measure of the width of the shoulder. The three parameters, n, Do, and Dq were related by the expression: loge n=Dq/Do.
(§2) Cells were treated with β-lap with or without dicoumarol for 2 h. […] Data were expressed as relative survival (treated/control×100%). Experiments were repeated at least three times, and data expressed as relative survival means±SEM. […] Human mammary epithelial cells were plated in 48 well dishes in growth media containing a 50:50 mixture of MGEM/DME:F12 medium supplemented with insulin, human epidermal growth factor and hydrocortisone.

ZR751 = system: ZR751; design: LD50 β-Lap + CAT: unit not given beside the values
Procedure: as §1, §2

[1] = system: MDA-MB-231 cells expressing NQO1 (231+); assay: Long term survival assay; assay type: cell-based, human; conditions: 231-NQ+ cells
Procedure: Cells were cultured and treated as described above.
Data were expressed as relative survival (treated/control×100%).

[2] = system: HMEC 1585 normal human mammary epithelial cells
Procedure: as §1, §2

NQO1 [3] = molecular target: T1, NQO1 (Homo sapiens, UniProt P15559, R139W); assay: NQO1 enzyme assays using β-lapachone or the standard menadione substrates; assay type: biochemical; conditions: β-lapachone as substrate
T1 construct: S9 Supernatants were prepared from cells in mid-log to late log phase growth; endogenous in cells; host or cells: cancer cell lines, mostly from a non-small cell lung cancer panel (e.g. Calu-3); S9 supernatants
Procedure: (§3) S9 Supernatants were prepared from cells in mid-log to late log phase growth. […] The cell suspensions were sonicated on ice four times, using 10-s pulses, and then centrifuged at 14,000×g for 20 min. The S9 supernatants were aliquoted into microcentrifuge tubes and stored at −80° C. until used. A 1× protease inhibitor cocktail was added to prevent enzyme activity degradation. […] Menadione was used as the electron acceptor. NADH was used as the electron donor.
(§4) NQO1 activity was measured using NADH (200 μM) as the immediate electron donor and menadione (10 μM) as the intermediate electron acceptor. […] Biochem. Biophys. […] NADH: cytochrome b5 reductase was measured using NADH (200 μM) as the electron donor, and […] was measured using NADPH (200 μM) as electron donor (45) in a Beckman DU 640 spectrophotometer (Beckman Coulter, Fullerton, Calif.). Reactions were carried out at 37° C. and were initiated by the addition of S9 supernatants. Varying amounts of supernatants, from 10 to 40 μL, were used to ensure linearity of rates with protein concentration. […] Results shown are the average enzyme activity for three separate cell extractions±S.D. or both values from duplicate experiments.
(§5) Cell lines, mostly from a 5-panel nonsmall cell lung cancer panel from the UT Southwestern SPORE, were assessed for NQO1 polymorphism status and then monitored for NQO1 enzyme assays using β-lapachone or the standard menadione substrates. […] NQO1*2/*2 and *3/*3 polymorphisms were detected from NQO1 *1/*1 wild-type sequences by PCR-RFLP. Genomic DNA was extracted from the cells using Qiagen spin columns. Using previously described oligonucleotide primers, PCR products underwent gel electrophoresis. Final genotyping was determined based on the size and pattern of separated bands diagnostic for *1/*1 (wild-type), or polymorphic *2/*2 or *3/*3 NQO1 polymorphisms.

NQO1 [4] = assay: as above; assay type: biochemical, human; conditions: β-lapachone as substrate, HCC44 *1/*2
Procedure: as §3, §4, §5

PC-3 cells = assay: Apoptosis by TUNEL assay; assay type: cell-based, human; conditions: 2 μM β-lap alone, NQO1-expressing PC-3 cells
Procedure: Apoptosis was quantified using ApoDirect™ (TUNEL) assays from BD Pharmingen as described (Bey et al., 2007, Proc. Natl. Acad. Sci. USA, 104:11832-837). Samples were analyzed by using FC-500 flow cytometer (Beckman Coulter Electronics, Brea, Calif.) and Elite acquisition software. Data were expressed as means±SE from three independent experiments.

PARP1 in 231-NQ+ cells = assay: PAR formation (PARP1 hyperactivation), Western blot; assay type: cell-based, human; conditions: after 2 μM β-lap
[5] = system: orthotopic lung tumors, *2/*2 or *3/*3; assay: Survival of mice bearing orthotopic lung tumors; assay type: in vivo; conditions: *2/*2 or *3/*3 tumors, β-lap-HPβ-CD intravenously, 5 doses every other day
Procedure: FIG. 16 depicts NQO1 levels predict response to NQO1 bioactivatable therapies. In (a) LD50 responses of non-small cell lung cancer (NSCLC) cell lines treated with β-Lap for 2 h and harvester 7 days later. LD50 responses were plotted as a function of NQO1 enzymatic levels. The notations, *1/*1 and *2/*2 represent the NQO1 status of each cell line as homozygous wild type (*1/*1) or homozygous polymorphic (*2/*2) genotypes. Note that all heterozygote cells containing one wild-type allele (*1) are wild-type, phenotypically, for NQO1 expression, such that only homozygous *2/*2 or 3/3 are considered non-responsive to NQO1 bioactivatable drugs. Note the high resistance of H596 and H2862 cell lines to β-lapachone compared to all of the wild-type *1/*1 cells with LD50 values less than 5 μM. Note also that *3/*3 SNPs in NQO1 are far more rare than *2/*2 single point mutations in NQO1. In (b), Kaplan-Meier survival curve of mice bearing orthotopic lung tumors implanted with *1/*1 A549 cells. Mice were treated intravenously (5 doses every other day) with β-lap-HPβ-CD or vehicle alone (HPβ-CD). Similar studies with *2/*2 or *3/*3 tumors were performed and these tumors were non-responsive to β-lapachone or other NQO1 bioactivatable drug therapies.

[6] = system: NQO1-deficient LNCaP cells; assay: Relative survival assay; assay type: cell-based, human
Procedure: Relative DNA cell survival assays were assessed after various treatments. […] Cells were then mock-treated or treated with various doses of β-lap (for 2 h) in the presence or absence of dicoumoral as indicated. Drug-free medium was then added and cells allowed to grow for 5-7 days until control cells reached ˜100% confluence. […] Results were reported as means±SE from at least three independent experiments.

NQO1+ human cancer cells = conditions: cited from earlier work

T1 sequence (P15559 whole entry R139W): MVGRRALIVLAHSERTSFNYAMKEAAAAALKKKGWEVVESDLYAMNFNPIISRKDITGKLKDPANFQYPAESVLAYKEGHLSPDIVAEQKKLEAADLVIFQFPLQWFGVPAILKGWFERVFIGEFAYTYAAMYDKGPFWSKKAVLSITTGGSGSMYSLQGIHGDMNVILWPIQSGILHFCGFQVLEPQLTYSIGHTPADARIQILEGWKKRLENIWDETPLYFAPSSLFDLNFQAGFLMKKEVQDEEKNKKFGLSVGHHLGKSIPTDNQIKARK

Compound: CC1(C)CCC2=C(O1)c1ccccc1C(=O)C2=O [β-Lap, 3,4-dihydro-2,2-dimethyl-2H-naphtho[1,2-b]pyran-5,6-dione]
- LD50 β-Lap + CAT (MCF-7): 4.8
- LD50 p-Lap + DIC (MCF-7; human): 9.0
- LD50 β-Lap (MCF-7; human): 1.7
- LD50 β-Lap + CAT (ZR751): 3.2
- LD50 p-Lap + DIC (ZR751; human): 6.8
- LD50 β-Lap (ZR751; human): 1.4
- Lethal dose ([1]; 2 h): > 2 µM
- Sublethal dose ([1]; 2 h): 1 µM
- LD70 dose ([1]; 2 h treatment): ~2 µM
- LD50 β-Lap [2]: >10
- NQO1 activity, β-Lap (NQO1 [3]; Calu-3/NSCLC *3/*3): 243 ± 2 nmol/min/µg
- NQO1 activity, β-Lap (NQO1 [3]; H2009/NSCLC *3/*3): 120 ± 3 nmol/min/µg
- NQO1 activity, β-Lap (NQO1 [3]; HCC1171/NSCLC *3/*3): 369 ± 9 nmol/min/µg
- NQO1 activity, β-Lap (NQO1 [3]; T47D/BreastCancer *3/*3): 138 ± 3 nmol/min/µg
- NQO1 activity, β-Lap (NQO1 [4]): 879 ± 14 nmol/min/µg
- Apoptosis (PC-3 cells): 5±2%
- Time of peak PAR formation (PARP1 in 231-NQ+ cells): 30 min
- Response of tumors [5]: non-responsive
- Response to β-lap [6]: not responsive
- Lethality (NQO1+ human cancer cells; 1-2 μM treatments for 2-4 h): not lethal
- Cell death responses (TUNEL staining) (NQO1+ human cancer cells; 2-3 μM for 2-4 h): > 90%
